Consider one molecule from US7388006B2, “Non-steroidal progesting” (Bayer Schering Pharma AG, priority 2002, dated 2008).

Molecules are shown by their SMILES.

For test [1], the system named is rat mammary epithelium. In words: MIB-5 immunohistochemistry, proliferation of the mammary epithelium. As to conditions: FIG. 2. It counts as in vivo. The protocol: In order to determine the effects of test progestins according to the present invention, in particular compound ((+)-1), in mammary gland differentiation and proliferation, premature female rats (Wistar Han, SPF) are ovariectomized at the age of 21 days, 4 to 6 days before treatment start. The animals are treated for 6 days with standard estrogen (estrone (E1), 70 μg/kg) and the test progestin ((+)-1) (application volume: 0.1 ml/50 g body weight; vehicle: benzylbenzoate/castor oil (1+4 v/v); subcutaneous). Control groups are e.g.: vehicle, estrone without progestin, estradiol together with a known progestin, e.g. R5020 (promegestone). After the 6-day treatment the animals are killed with carbon dioxide.
For the whole mount staining, animals are shaved in the left abdominal inguinal mammary region, which is cut from the body together with the skin. For the histological/immunohistochemical analyses the right abdominal inguinal mammary gland is cut from the body together with the connective-tissue adhered thereto and fixed in 3.7% formalin in PBS (phosphate buffer saline; without Ca^2+/Mg^2+).
For a more detailed evaluation of the proliferation of the mammary epithelium, cells are stained with the proliferation marker MIB-5 as follows (cf. FIG. 2): Mammary glands are fixed in 4% formaldehyde/PBS for 24 h and embedded in paraffm. 4 μm sections are spread on slides, deparaffinized, treated with microwaves for 10 min. in citrate buffer pH 6.0 and rinsed with PBS. Slides are then blocked with 3% H2O2/methanol for 15 min., Blockingkit (Vektor, no. SP-2001) for 10 min. and rat serum (Sigma, no. S-7648) diluted 1:2 in PBS for 30 min to reduce nonspecific staining and rinsed in PBS. Slides are incubated for 1 hour with monoclonal antibody MIB-5 (Dianova, no. Dia-5055), which is specific for the rat Ki-67 antigen (1:200 diluted in PBS/0.2% BSA). […]
In order to characterize a test compound, the percentage of MIB-5 stained mammary epithelium cells is determined. […]

The target of test [2] is T1, mineralocorticoid receptor (MR) (Homo sapiens, UniProt P08235).
T1 sequence (P08235 1-984): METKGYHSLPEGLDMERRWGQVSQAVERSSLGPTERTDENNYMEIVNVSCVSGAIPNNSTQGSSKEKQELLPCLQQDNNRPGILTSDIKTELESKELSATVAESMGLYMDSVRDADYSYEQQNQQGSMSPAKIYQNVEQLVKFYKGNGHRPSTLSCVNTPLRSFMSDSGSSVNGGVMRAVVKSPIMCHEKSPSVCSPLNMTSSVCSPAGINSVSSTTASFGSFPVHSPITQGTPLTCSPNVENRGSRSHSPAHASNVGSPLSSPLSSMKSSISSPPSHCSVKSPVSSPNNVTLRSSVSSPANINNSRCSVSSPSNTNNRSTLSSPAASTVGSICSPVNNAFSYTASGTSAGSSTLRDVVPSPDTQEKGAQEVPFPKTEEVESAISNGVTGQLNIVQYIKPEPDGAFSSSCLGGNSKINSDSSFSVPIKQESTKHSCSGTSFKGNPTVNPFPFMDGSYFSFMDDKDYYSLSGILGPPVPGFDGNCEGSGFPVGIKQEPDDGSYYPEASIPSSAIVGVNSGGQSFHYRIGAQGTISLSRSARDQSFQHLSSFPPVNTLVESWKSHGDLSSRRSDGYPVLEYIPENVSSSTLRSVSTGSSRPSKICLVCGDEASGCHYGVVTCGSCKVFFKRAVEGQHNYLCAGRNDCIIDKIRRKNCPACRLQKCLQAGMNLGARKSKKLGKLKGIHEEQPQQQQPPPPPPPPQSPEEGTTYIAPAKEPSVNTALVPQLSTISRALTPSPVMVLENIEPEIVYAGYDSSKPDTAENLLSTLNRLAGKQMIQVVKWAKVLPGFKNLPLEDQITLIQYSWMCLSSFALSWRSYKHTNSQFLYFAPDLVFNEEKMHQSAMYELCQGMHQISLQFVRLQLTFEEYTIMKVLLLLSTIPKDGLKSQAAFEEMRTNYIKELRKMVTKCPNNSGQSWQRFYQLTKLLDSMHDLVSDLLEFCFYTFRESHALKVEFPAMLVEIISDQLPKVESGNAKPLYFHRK
In words: Binding to the mineralocorticoid receptor in vitro.

Test [3] relates to pregnancy in ovariectomized rats. The experiment in a line: Pregnancy maintenance test in rat. It counts as in vivo. The note with it: for Maintenance of pregnancy, factor compared to R5020: potency relative to R5020. The text has this:
In rats, castration induces termination of pregnancy. Progestins (combined with estrogens) are capable of maintaining pregnancy in castrated animals. However, the degree of pregnancy maintenance in castrated rats is optimal only in a defined dose range. Therefore, higher as well as lower doses generally induce a weaker effect. Accompanying treatment with defined doses of estrone (E1) increases the pregnancy maintaining effect of progestins.
Pregnant rats (Wistar Han, SPF) of 190 to 220 g (5 to 8 animals per dose) are ovariectomized on day 8 of pregnancy, 2 hours after the first substance administration. From day 8 to day 14, rats are daily treated with test progestin in combination with a standard dose of E1. One day later, animals are killed with carbon dioxide. For each animal, the number of living and dead fetuses is determined according to the heartbeat of the embryos. In case of empty uteri, the number of implantation sites is determined by means of staining with a 10% ammonium sulfide solution.
S.c. (subcutaneous) application: The test progestin is dissolved in benzyl benzoate/castor oil (1+4 v/v), and the daily dose is administered in a volume of 1 ml/kg body weight.
P.o. (peroral) application: The test progestin is suspended in a carrier liquid (85 mg Myrj^R in 100 ml 0.9% w/v NaCl solution), and the daily dose is administered in a volume of 2 ml/kg body weight.
I.p. (intraperitoneal) application: The test progestin is dissolved in propylene glycol and charged in miniature osmotic pumps (type 2001, 1.0 μl/h, 7 days), which are placed in the abdominal cavity of the rat.
The standard dose of estrone is 0.005 mg/kg body weight s.c. and is dissolved in benzyl benzoate/castor oil ([…]).
It is determined the pregnancy maintenance per animal [%], the pregnancy maintenance per dose (median of single values) and the EC50 (dose, at which pregnancy is maintained in 50% of the animals; 100% corresponds to control animals that are not ovariectomized). The results of the test are further discussed below in c).

Molecule `O=C1OCc2cc(NC(=O)C(O)(CC3(c4cc(C(F)(F)F)ccc4F)CC3)C(F)(F)F)ccc21` (single isomer, unassigned; (+)) [((+)-1), (+)-5-{2-hydroxy-3-[1-(2-fluoro-5-trifluoromethylphenyl)-cyclopropyl]-2-trifluoromethyl-propionylamino}-phthalide] yielded an MIB-5 positive cells in test [1] (1 mg/kg/d) of about 12%. Moreover, the “MIB-5 positive cells, dose dependence in words” value in test [1] (increasing concentrations) is listed as “dose-dependent decrease of MIB-5 positive cells”. Besides, the “Affinity for the mineralocorticoid receptor (MR)” value in test [2] is “negligible affinity”. Besides, the “Androgenic activity in the pregnancy maintenance test” value in test [3] (dose 100 times higher than the dose required for maintaining pregnancy) is given as “no androgenic activity”. In test [3] (rat), the “Pregnancy-maintaining activity EC50 value” came to 12 µg/kg/day and the “Maintenance of pregnancy, factor compared to R5020” value was “eight times as potent”. The “Maintenance of pregnancy, factor compared to R5020” value in test [3] (rat, listed as ((+)−1)) is 8.
